Assay results as given in PubChem BioAssay AID2060899 (Molecular Pharmacology Branch, DTP, NCI, 2025).

System: 565726-208-R1-J5-PDC complex spheroids, growth inhibition
Test: Anticancer human tumor 565726-208-R1-J5-PDC patient-derived pancreatic adenocarcinoma cell line growth inhibition [RAS]
Details: for IC50: curve of first compound; for viability, T/C: stronger effect = lower value; active means viability on the fitted dose curve at most 10% of control; inactive means the rest
Outline: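 Agents were tested in combination matrices in half-log decrements from a top concentration at or near clinical Cmax (10 microM if undetermined). Targets were multi-cell spheroids of tumour lines plus HUVEC and MSC stromal cells.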

[1] = second compound 0.0316 µM, first compound 0.0316 µM
[2] = second compound 0.0316 µM, first compound 0.1 µM
[3] = second compound 0.0316 µM, first compound 0.316 µM
[4] = second compound 0.0316 µM, first compound 1 µM
[5] = second compound 0.0316 µM, first compound 3.16 µM
[6] = second compound 0.0316 µM, first compound 10 µM
[7] = second compound 0.1 µM, first compound 0.0316 µM
[8] = second compound 0.1 µM, first compound 0.1 µM
[9] = second compound 0.1 µM, first compound 0.316 µM
[10] = second compound 0.1 µM, first compound 1 µM
[11] = second compound 0.1 µM, first compound 3.16 µM
[12] = second compound 0.1 µM, first compound 10 µM
[13] = second compound 0.316 µM, first compound 0.0316 µM
[14] = second compound 0.316 µM, first compound 0.1 µM
[15] = second compound 0.316 µM, first compound 0.316 µM
[16] = second compound 0.316 µM, first compound 1 µM
[17] = second compound 0.316 µM, first compound 3.16 µM
[18] = second compound 0.316 µM, first compound 10 µM
[19] = second compound 1 µM, first compound 0.0316 µM
[20] = second compound 1 µM, first compound 0.1 µM
[21] = second compound 1 µM, first compound 0.316 µM
[22] = second compound 1 µM, first compound 1 µM
[23] = second compound 1 µM, first compound 3.16 µM
[24] = second compound 1 µM, first compound 10 µM
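Further: spheroids exposed to compounds for seven days before readout.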
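Wherever viability, T/C is given: 100% = DMSO vehicle control viability.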

C[C@@H](NC(=O)c1ncnc(N)c1Cl)c1ncc(C(=O)Nc2cc(C(F)(F)F)c(Cl)cn2)s1 + C=CC(=O)N1CCN(c2nc(OCC3CCCN3C)nc3c(F)c(-c4nc(N)cc(C)c4C(F)(F)F)c(Cl)cc23)C(C)C1
> 10000 nM: IC50 (second compound 0.00316 µM) | IC50 (second compound 0.01 µM) | IC50 (second compound 0.0316 µM) | IC50 (second compound 0.1 µM) | IC50 (second compound 0.316 µM) | IC50 (second compound 1 µM)
inactive: viability, T/C (second compound 0.00316 µM, first compound 0.0316 µM) 119% | viability, T/C (second compound 0.00316 µM, first compound 0.1 µM) 151% | viability, T/C (second compound 0.00316 µM, first compound 0.316 µM) 88.8% | viability, T/C (second compound 0.00316 µM, first compound 1 µM) 98.3% | viability, T/C (second compound 0.00316 µM, first compound 3.16 µM) 77.7% | viability, T/C (second compound 0.00316 µM, first compound 10 µM) 78.3% | viability, T/C (second compound 0.01 µM, first compound 0.0316 µM) 95.5% | viability, T/C (second compound 0.01 µM, first compound 0.1 µM) 140% | viability, T/C (second compound 0.01 µM, first compound 0.316 µM) 94.5% | viability, T/C (second compound 0.01 µM, first compound 1 µM) 89.1% | viability, T/C (second compound 0.01 µM, first compound 3.16 µM) 91.9% | viability, T/C (second compound 0.01 µM, first compound 10 µM) 67.8% | viability, T/C [1] 115% | viability, T/C [2] 129% | viability, T/C [3] 92.8% | viability, T/C [4] 99.3% | viability, T/C [5] 88.2% | viability, T/C [6] 70.9% | viability, T/C [7] 120% | viability, T/C [8] 123% | viability, T/C [9] 102% | viability, T/C [10] 97.2% | viability, T/C [11] 98.7% | viability, T/C [12] 83.4% | viability, T/C [13] 86.7% | viability, T/C [14] 128% | viability, T/C [15] 104% | viability, T/C [16] 101% | viability, T/C [17] 106% | viability, T/C [18] 76.9% | viability, T/C [19] 89.1% | viability, T/C [20] 120% | viability, T/C [21] 108% | viability, T/C [22] 114% | viability, T/C [23] 86.4% | viability, T/C [24] 74.6%

CCC(CC)c1cc(NC2CCC(N)C2)n2nccc2n1 (centres undefined) + C#Cc1c(F)ccc2cc(O)cc(-c3ncc4c(N5CC6CCC(C5)N6)nc(OCC56CCCN5CC(F)C6)nc4c3F)c12
active: viability, T/C [5] 1.28% | viability, T/C [6] 1.5% | viability, T/C [12] 1.87% | viability, T/C [18] 1.94% | viability, T/C [24] 1.4% | viability, T/C (second compound 3.16 µM, first compound 3.16 µM) 0.63% | viability, T/C (second compound 3.16 µM, first compound 10 µM) 1.4% | viability, T/C (second compound 10 µM, first compound 3.16 µM) 0.25% | viability, T/C (second compound 10 µM, first compound 10 µM) 0.31%
1030 nM: IC50 (second compound 1 µM)
665 nM: IC50 (second compound 3.16 µM)
inactive: viability, T/C [1] 111% | viability, T/C [2] 163% | viability, T/C [3] 113% | viability, T/C [4] 74.5% | viability, T/C [7] 132% | viability, T/C [8] 138% | viability, T/C [9] 96.9% | viability, T/C [10] 70.2% | viability, T/C [11] 1.11% | viability, T/C [13] 133% | viability, T/C [14] 135% | viability, T/C [15] 103% | viability, T/C [16] 73.3% | viability, T/C [17] 1% | viability, T/C [19] 141% | viability, T/C [20] 123% | viability, T/C [21] 98.8% | viability, T/C [22] 58.1% | viability, T/C [23] 0.9% | viability, T/C (second compound 3.16 µM, first compound 0.0316 µM) 110% | viability, T/C (second compound 3.16 µM, first compound 0.1 µM) 106% | viability, T/C (second compound 3.16 µM, first compound 0.316 µM) 67.4% | viability, T/C (second compound 3.16 µM, first compound 1 µM) 44.9% | viability, T/C (second compound 10 µM, first compound 0.0316 µM) 92.3% | viability, T/C (second compound 10 µM, first compound 0.1 µM) 83.5% | viability, T/C (second compound 10 µM, first compound 0.316 µM) 51.5% | viability, T/C (second compound 10 µM, first compound 1 µM) 37.1%
426 nM: IC50 (second compound 10 µM)
1250 nM: IC50 (second compound 0.1 µM)
1360 nM: IC50 (second compound 0.316 µM)
1460 nM: IC50 (second compound 0.0316 µM)

CC(C)n1nc(-c2ccc3oc(N)nc3c2)c2c(N)ncnc21 + CCn1c(-c2cc(N3CCN(C)CC3)cnc2C(C)OC)c2c3cc(ccc31)-c1csc(n1)CC(NC(=O)C1CC1C)C(=O)N1CCCC(N1)C(=O)OCC(C)(C)C2
1.9 nM: IC50 (second compound 0.000949 µM)
inactive: viability, T/C (second compound 0.000949 µM, first compound 0.000316 µM) 65.3% | viability, T/C (second compound 0.000949 µM, first compound 0.001 µM) 48.7% | viability, T/C (second compound 0.000949 µM, first compound 0.00316 µM) 51.4% | viability, T/C (second compound 0.000949 µM, first compound 0.01 µM) 36.5% | viability, T/C (second compound 0.000949 µM, first compound 0.0316 µM) 23.8% | viability, T/C (second compound 0.000949 µM, first compound 0.1 µM) 17.7% | viability, T/C (second compound 0.003 µM, first compound 0.000316 µM) 48.6% | viability, T/C (second compound 0.003 µM, first compound 0.001 µM) 45.6% | viability, T/C (second compound 0.003 µM, first compound 0.00316 µM) 38.6% | viability, T/C (second compound 0.003 µM, first compound 0.01 µM) 28.4% | viability, T/C (second compound 0.003 µM, first compound 0.0316 µM) 20.7% | viability, T/C (second compound 0.003 µM, first compound 0.1 µM) 14.1% | viability, T/C (second compound 0.00949 µM, first compound 0.000316 µM) 40.4% | viability, T/C (second compound 0.00949 µM, first compound 0.001 µM) 35.5% | viability, T/C (second compound 0.00949 µM, first compound 0.00316 µM) 30.6% | viability, T/C (second compound 0.00949 µM, first compound 0.01 µM) 22.7% | viability, T/C (second compound 0.00949 µM, first compound 0.0316 µM) 15.7% | viability, T/C (second compound 0.00949 µM, first compound 0.1 µM) 10.6% | viability, T/C (second compound 0.03 µM, first compound 0.000316 µM) 30% | viability, T/C (second compound 0.03 µM, first compound 0.001 µM) 31.1% | viability, T/C (second compound 0.03 µM, first compound 0.00316 µM) 26% | viability, T/C (second compound 0.03 µM, first compound 0.01 µM) 17.5% | viability, T/C (second compound 0.03 µM, first compound 0.0316 µM) 13.2% | viability, T/C (second compound 0.0949 µM, first compound 0.000316 µM) 26.7% | viability, T/C (second compound 0.0949 µM, first compound 0.001 µM) 25.9% | viability, T/C (second compound 0.0949 µM, first compound 0.00316 µM) 20.3% | viability, T/C (second compound 0.0949 µM, first compound 0.01 µM) 14.6% | viability, T/C (second compound 0.0949 µM, first compound 0.0316 µM) 10.4% | viability, T/C (second compound 0.3 µM, first compound 0.000316 µM) 22.7% | viability, T/C (second compound 0.3 µM, first compound 0.001 µM) 21.3% | viability, T/C (second compound 0.3 µM, first compound 0.00316 µM) 18.9% | viability, T/C (second compound 0.3 µM, first compound 0.01 µM) 15.1% | viability, T/C (second compound 0.3 µM, first compound 0.0316 µM) 11.1%
active: viability, T/C (second compound 0.03 µM, first compound 0.1 µM) 8.25% | viability, T/C (second compound 0.0949 µM, first compound 0.1 µM) 6.63% | viability, T/C (second compound 0.3 µM, first compound 0.1 µM) 6.78%
< 0.316 nM: IC50 (second compound 0.003 µM) | IC50 (second compound 0.00949 µM) | IC50 (second compound 0.03 µM) | IC50 (second compound 0.0949 µM) | IC50 (second compound 0.3 µM)

O=C(c1ccc(F)c(F)c1Nc1ccc(I)cc1F)N1CC(O)([C@@H]2CCCCN2)C1
inactive: viability, T/C (compound 0.0316 µM) 69.5% [middle of 4 runs] | viability, T/C (compound 0.1 µM) 62.4% [middle of 4 runs] | viability, T/C (compound 1 µM) 33.5% [middle of 4 runs]
